Assays:
[1] = system: Bst DNA polymerase v.2.0; test: Flow cytometry assay: tolerance of dye-labeled dUTP* compared to dUTP analogs (Example 7); assay type: biochemical; conditions: for Tolerance: tolerance of dUTP* compared to the named dUTP^0
Method: A solution of biotinylated template (2 microliters (μL) of 100 μM) and dye-labeled primer (4 μL of 100 μM) were combined in annealing buffer (40 μL; Tris (10 millimolar (mM)), EDTA (1 mM), NaCl (100 mM)). The resulting solution was heated to 95° C. and allowed to slowly cool to room temperature. A portion of this solution (8 μL) was mixed with streptavidin-labeled magnetic beads (4 μL of Invitrogen Dynabeads™ MyOne™ Streptavidin C1, 10 milligrams/milliliter (mg/mL); washed and eluant removed) and 2× bead wash buffer (8 μL; 10 mM Tris, pH 7.5, 1 mM EDTA, 2 M NaCl, 0.01% Triton X-100). After washing with TET solution (10 mM Tris, 1 mM EDTA, 0.05% Triton X-100) the beads were treated with Bst DNA polymerase v.2.0 (8 μL of 8 units (U)/μL; New England Biolabs) for five minutes. The excess enzyme was removed by washing with TET and the beads were suspended in 1×DNA polymerase buffer solution (20 mM Tris, pH 8, 10 mM NaCl, 2 mM MgCl2, 0.01% Triton X-100). The sequence of the biotinylated template was /52 Bio//iSp18/[…] […] (SEQ ID NO: 12), where “5” is indicative of the 5′-end of the oligo, 2-Bio indicates dual biotin, and iSP18 indicates a PEG spacer. […] […] (SEQ ID NO: 13), where “5” indicates the 5′-end of the oligo and JOE indicates a fluorescent dye attached to the oligo.
Next, a portion of the suspended magnetic beads (10 μL) were removed and placed in a PCR tube. A solution of nucleotides (10 μL) was added to the tube and the tube incubated for 40 seconds (s) at 50° C. The enzyme reaction was stopped with the addition of 5 μL of 50 mM EDTA. The beads were washed with 2×100 μL TET and resuspended in 20 μL TET. A portion of the bead solution (1 μL) was added to TE (200 μL) and the beads examined for red fluorescence on a flow cytometer (BD Accuri™, APC channel). The eluant of the remaining beads was removed and 40 μL of 95:5 formamide:10 mM EDTA was added to the beads. A portion of the formamide solution (1 μL) was added to 40 μL 95:5 formamide EDTA. The solutions were examined by capillary electrophoresis (CE) on an ABI 3730 instrument and the peaks identified and quantitated by peak height. The experimental protocol is summarized schematically in FIG. 2.
Tolerance was measured at two molar fractions, […] and 0.05, for each of the four dUTP analogs.

[2] = system: Bst 2.0 DNA polymerase; test: Homopolymer assays of nucleotide analogs (Example 10); assay type: biochemical; conditions: Natural Nucleotide T (TTP = 1); template oligo 332, primer 221L
Method: A homopolymer assay was performed to investigate the effectiveness of E-dCTP and P-dUTP as nucleotide analogs of dCTP. 50 μl solutions containing a template nucleic acid molecule and primer and Bst 2.0 DNA polymerase are placed in a microplate reader and the fluorescence of the solution is measured in kinetic mode. A fluorescein attached to an oligonucleotide (indicated with a * in FIG. 7) was quenched in the substrate due to the proximity of complementary G bases. Addition of dCTP and/or dCTP analogs causes extension of the 3′ end of the primer, formation of double-stranded DNA, and unquenching of the fluorescein. The fluorescence increases with the addition of multiple nucleotides.
Additional homopolymer assays were performed according to the procedure outlined in Example 8 using different nucleotides and nucleotide analogs.
To test for dUTP or TTP incorporation, oligo 332 was used as a template and oligo 221L was used as a primer. To test for dCTP incorporation, oligo 333 was used as a template and oligo 221L was used as a primer. To test for dGTP incorporation, oligo 334 was used as a template and oligo 221L was used as a primer. To test for dATP incorporation, hairpin oligo 221 was used as both a primer and template.

Cc1cn([C@H]2C[C@H](O)[C@@H](COP(=O)(O)OP(=O)(O)OP(=O)(O)O)O2)c(=O)[nH]c1=O [TTP, thymidine triphosphate, reference compound]
Apparent fraction ([1]; molar fraction dUTP* 0.05): 0.058 | Red signal ([1]; molar fraction dUTP* 0.05, rest the named dUTP^0): 2,900 | Apparent fraction ([1]; molar fraction dUTP* 0.5): 0.42 | Red signal ([1]; molar fraction dUTP* 0.5, rest the named dUTP^0): 21,000 | Tolerance ([1]; molar fraction dUTP* 0.05): 1.2 | Tolerance ([1]; molar fraction dUTP* 0.5): 0.8 | Relative Rate in Homopolymer Assay [2]: 1

Reference: patent US11326207B2, “Sequencing using non-natural nucleotides” (Ultima Genomics, Inc., priority 2017, dated 2022)
